Data taken from US9481743B2, “Polyelectrolyte polymers, their manufacture and use” (priority 2013, dated 2016).
“Also recorded” adds a separate entry of the source. One block for each molecule: values may come before it.

How the values were obtained:
[1] = Static water contact angle of UV-cured phosphonium films with alumina microparticles; format: physicochemical
Experimental: Solution ^1H, ^19F{^1H} and ^31P{^1H} NMR spectra were recorded on a Varian INOVA 400 MHz spectrometer (^1H; 400.09 MHz, ^31P; 161.82 MHz, ^19F; 376.15 MHz). All samples for ^1H NMR spectroscopy were referenced to the residual protons in the deuterated solvents (^1H: chloroform-d 7.26; acetone-d6 2.05). ^31P{^1H} and ^19F{^1H} NMR spectroscopic chemical shifts were reported relative to external standards (85% H3PO4: 0.00 ppm and CF3C6H5: −63.9 ppm). Mass spectrometry (MS) measurements were recorded in positive and negative ion modes using an electrospray ionization (ESI) Micromass LCT spectrometer. Infrared spectra were recorded using a Bruker Tensor 27 spectrometer from Bruker Optics Inc. Samples were measured by attenuated total reflectance (ATR) infrared spectroscopy, using a zinc selenide crystal. Melting points were determined using a Gallenkamp Variable Heater in air. Scanning electron microscope images of the surfaces were obtained using a Hitachi S-4500 field emission instrument, operated at an electron beam voltage of 10 kV equipped with a Quartz Xone EDX system. AFM was performed on a Park Systems XE-100 in air with a relative humidity of ˜40%. […] Water contact angles were measured on a Kruss DSA 100 with DSA drop shape analysis software. Using an automated dispensing system, static 5 μL droplets of distilled water were deposited in different areas upon the surface. The contact angles were measured on the left and right side of each drop on at least ten droplets, resulting in a minimum of twenty angles per film. The reported contact angle is the average of all measurements.
The general procedure for film preparation and curing was as follows: the chosen phosphonium salt (95%) and 1-hydroxycyclohexylphenylketone (CPK, 5%) were dissolved in acetone. Microparticles (when included) were then added to the solution, the resulting mixture insonated in a sonic bath (Elasmonic E 60H, 100 Watts) for 10 minutes and then applied to pre-treated polyester sheets (DuPont) with a pipette. A #10 wire Meyer rod (Gardco) was used to spread the mixture evenly across the polyester substrate, producing a wet thickness of approximately 25 μm. A UV-curing conveyor (UV Process Supply) was set to allow a time exposure of ˜3 s (UV-light irradiance over this time frame was measured at 760 mJ/cm^2). The substrate with the uncured film was taped to a metal sheet and passed through the UV-conveyor.

[2] = Solubility/miscibility tests; format: physicochemical
Experimental: Approximately 5-10 mg of compound was added to a test tube followed by the addition of 1.5 mL of solvent followed by 5 seconds of gentle stirring. If dissolution was not observed immediately, the mixture was further stirred and sonicated for 30 seconds. Material was deemed soluble if the resulting solution was free of particulate and haze, determined by visual inspection. […] If solutions remained hazy, they were referred to as emulsion mixtures.

[3] = Water contact angle of UV-cured HDDA films containing HFPPS; format: physicochemical; settings: UV-cured film
Experimental: Nuclear Magnetic Resonance (NMR) spectroscopy was conducted on a Varian INOVA 400 MHz spectrometer (^1H, 400.09 MHz, ^31P{^1H} 161.82 MHz, ^19F, 376.15 MHz). All ^1H spectra were referenced relative to tetramethyl silane (CDCl3; ^1H δH=7.26 ppm and CO(CD3)2; ^1H δH=2.04). The chemical shifts for ^31P{H} NMR spectroscopy were referenced using an external standard (85% H3PO4; δP=0). The chemical shifts for ^19F{^1H} NMR spectroscopy were also referenced using an external standard (trifluorotoluene; δF=−63.9 ppm). Infrared spectra were recorded using a Bruker Tensor 27 spectrometer using attenuated total reflectance mode (ATR) using a ZnSe crystal. Sonication of the UV curable formulations was conducted in an E60H Elmasonic sonicator at frequency of 37 kHz using an effective power of 100 W. Deposition of the formulation was performed using a 25-micron Meyer Rod purchased from Gardco on microscope slides purchased from Technologist Choice unless otherwise noted. UV curing was performed using a modified UV curing system purchased from UV Process and Supply Inc. with a mercury bulb. Samples were irradiated with an energy density of 1956 mJ/cm^2 and an irradiance of 1383 mW/cm^2. Water contact angles (WCA) were measured using a Kruss DSA100 Drop Shape Analyzer and analyzed using Drop Shape Analysis. Thermal degradation was determined using Thermal Gravimetric Analysis (TGA) on a Q600 SDT TA instrument. A sample of 5-15 mg was placed in an aluminum cup and heated at a rate of 10° C./min from room temperature to 600° C. under nitrogen atmosphere (100 mL/min). Glass transition temperatures were determined using Differential Scanning calorimetry (DSC) on a DSC Q20 TA instrument. A sample of approximately 10 mg was placed in an aluminum Tzero pan and underwent a heat/cool/heat profile at 10° C./min under nitrogen atmosphere (100 mL/min). Data was acquired from the final heat cycle of the heat/cool/heat profile. Melting points of all HFPS were determined using a Gallenkamp Variable Heater in air. Mass spectrometry was recorded in both positive and negative ion modes using electrospray ionization (ESI) Micromass LCT spectrometer. Elemental analysis (EA) was performed by the Elemental Analysis Laboratory at the Université de Montreal. Time-of-fight Secondary Ion Mass Spectrometry (TOF-SIMS) measurements were performed using an ION-TOF (Gmbh) TOF-SIMS IV equipped with a Bi cluster liquid metal ion source. A 25 keV Bi3^+ cluster primary pulsed ion beam (10 kHz, pulse width 20 ns) was used to bombard the surface to generate secondary ions. The positive or negative secondary ions were extracted from the sample surface, mass separated and detected via a reflectron-type time-of-flight analyser. Depth profiles were obtained by repeating the following cycle: sputtering an area of 500 μm×500 μm on the sample surface with a 3 keV Cs^+ ion beam for 0.5 s followed by, with a delay of 2 s, collecting mass spectra at 128×128 pixels with the Bi3^+ ion beam over an area of 245 μm×245 μm in the center of the sputtered area.
A desired amount of photoinitiator, crosslinker, and phosphonium salt were weighed and combined in screw top vials. The mixture was then insonated at 45° C. for 20 min until the solutions were free of particulate and haze. After cooling to room temperature, the solutions were cast on glass slides and irradiated with UV light three times.

Bacteria = experiment: Antimicrobial efficacy of [4]Cl films (same procedure, bacterium not given); format: cell-based
Experimental: A desired amount of 2-hydrox-2-methy-1-phenyl-propanone (5 wt %), diacrylate crosslinker (EB 130, a cyclic aliphatic diacrylate) and the acrylate-appended phosphonium salt were weighed and combined in screw top vials. The mixture was then insonated at 45° C. for 20 min until the solutions were free of particulate and haze. After cooling to room temperature, the solutions were cast on polyester films and irradiated with UV light three times. Leached films were treated with H2O (Milli-Q) in a wrist action shaker for 4 hours, followed by washing with H2O (2×10 mL) and air drying. Both leached and unleached films were subjected to the antibacterial test (below).
The antibacterial activities of the charged surfaces against Gram-negative bacteria Escherichia coli […] were studied using the antibacterial drop-test. E. coli precultured in 15 mL of nutrient broth (Difco™ BD) at 37° C. for 24 h, was washed by centrifuging at 4000 rpm for 10 min. After removing the supernatant, the cells were washed with phosphate buffered saline (PBS) twice and re-suspended and diluted to approximately 10^6 colony forming units (CFU)/mL in PBS solution. The samples were placed in sterilized Petri dishes. 100 μL of PBS solution with bacteria was added dropwise onto sterilized surfaces until completely covered. The petri dishes were sealed and placed in an incubator at 37° C. with the humidity 46%. After 4 hr, the bacteria were washed from the surface of the sample by using 10 mL PBS in the sterilized Petri dish. From this solution, 100 μL was spread onto solid plate count agar (Difco™ BD). After incubation for 24 h at 37° C., the number of surviving bacterial colonies on the Petri dishes were counted. The results after multiplication with the dilution factor were expressed as CFU per mL. The above experiments were carried out in triplicate for each sample. The percentage of killed bacteria was calculated as [(CFU of initial bacterial suspension−CFUs following surface contact)/CFU of initial bacterial suspension]×100.
As phosphonium content in the films increased, both an increase in surface charge density and bacterial activity was observed. […] The pronounced difference in films containing 25 and 30 wt % is believed to be due to differences in surface energy between EB 130 and the phosphonium salt. The non-polar nature of the crosslinking agent has lower surface energy than that of the phosphonium salt. […] Upon the addition of sufficient phosphonium salt, cations became present at the surface, as detected by the fluorescein dye experiment and exemplified by the increase in antibacterial efficacy. […] Films were prepared and analyzed following the same procedure.

[4] = Density of surface phosphonium cations by UV-vis (fluorescein dye); format: physicochemical
Experimental: Characterization by FTIR-ATR spectroscopy confirmed the conversion of acrylate functionality post polymerization. Percent cure was determined using a literature procedure. The intensity of the acrylate vibration at 810 cm^−1 was compared to the C═O vibration at 1750 cm^−1 both before and after irradiation. […] The density of surface phosphonium cations was determined by UV-vis spectroscopy as described in a literature procedure.
Characterization by FTIR-ATR spectroscopy confirmed the conversion of acrylate functionality post polymerization. […] The density of surface phosphonium cations was determined by UV-vis spectroscopy as described in a literature procedure^23. […] This assumes a 1:1 ratio of positive and negative charge on the surface.
Before deposition of [Au25L18]^−, the number of accessible charges on the PPF was quantified. A known protocol utilizing fluorescein dye was employed to determine the value for the above system and to relate this quantity back to the percentage of phosphonium monomers that were included in the original formulation.^23 This procedure is commonly used as a characterization technique for films containing surface-bound quaternary salts. […] At 30 wt %, a dramatic increase in the number of quaternary charges was observed (1.5×10^15 cations/cm^2). Increasing the salt content to 37.5 and 47.5 wt % yielded surfaces with 8.2×10^15 and 1.4×10^16 cations/cm^2, respectively. […] Use of low melting phosphonium salts permits formation of a formulation having low viscosity despite the high ion content, allowing for ease of handling and deposition. Use of high melting point organic salts in a similar fashion generates formulations with relatively high viscosities or significant solubility issues, which manifest themselves in poor films. Advantages of the phosphonium-based acrylate monomer in the fabrication of the charged surfaces can thus be seen.

[5] = film with 50 w % Al2O3 microparticles (±3)
[6] = particle-free UV-cured film of the salt with 5 w % CPK on polyester

Compound: C=Cc1ccc(C[P+](CCC(F)(F)C(F)(F)C(F)(F)C(F)(F)F)(CCC(F)(F)C(F)(F)C(F)(F)C(F)(F)F)CC(C)CC(C)(C)C)cc1.[Cl-] (stereo not drawn) [[1]Cl]
WCA [1, 5]: 88 ° | WCA [1, 6]: ≈ 80 °; also recorded: ≈ 90 °

Compound: C=Cc1ccc(C[P+](CCC(F)(F)C(F)(F)C(F)(F)C(F)(F)F)(CCC(F)(F)C(F)(F)C(F)(F)C(F)(F)F)CC(C)CC(C)(C)C)cc1.O=S(=O)([N-]S(=O)(=O)C(F)(F)F)C(F)(F)F (stereo not drawn) [[1]NTf2]
Solubility (in words) ([2]; chloroform): soluble | Solubility (in words) ([2]; dichloromethane): soluble | Water contact angle ([3]; 0.1 wt % in HDDA): 82 ° | Water contact angle ([3]; 0.5 wt % in HDDA): 84 ° | Water contact angle ([3]; 1 wt % in HDDA): 87 ° | Water contact angle ([3]; 1.5 wt % in HDDA): 87 °

Compound: C=Cc1ccc(C[P+](CCC(F)(F)C(F)(F)C(F)(F)C(F)(F)F)(CCC(F)(F)C(F)(F)C(F)(F)C(F)(F)F)CCC(F)(F)C(F)(F)C(F)(F)C(F)(F)F)cc1.[Cl-] [[2]Cl]
WCA [1, 6]: ≈ 80 °

Compound: C=Cc1ccc(C[P+](CCC(F)(F)C(F)(F)C(F)(F)C(F)(F)F)(CCC(F)(F)C(F)(F)C(F)(F)C(F)(F)F)CCC(F)(F)C(F)(F)C(F)(F)C(F)(F)F)cc1.O=S(=O)([N-]S(=O)(=O)C(F)(F)F)C(F)(F)F [[2]NTf2]
Water contact angle ([3]; 0.05 wt % in HDDA): 80 ° | Water contact angle ([3]; 0.1 wt % in HDDA): 89 ° | Water contact angle ([3]; 0.5 wt % in HDDA): 91 ° | Water contact angle ([3]; 1 wt % in HDDA): 92 ° | Water contact angle ([3]; 1.5 wt % in HDDA): 92 ° | WCA [1, 5]: 141 ° | WCA [1, 6]: ≈ 90 °

Solubility (in words) ([2]; chloroform): soluble | Solubility (in words) ([2]; dichloromethane): soluble
Compound: C=Cc1ccc(C[P+](CCC(F)(F)C(F)(F)C(F)(F)C(F)(F)C(F)(F)C(F)(F)F)(CCC(F)(F)C(F)(F)C(F)(F)C(F)(F)C(F)(F)C(F)(F)F)CC(C)CC(C)(C)C)cc1.[Cl-] (stereo not drawn) [[3]Cl]

Compound: C=CC(=O)OCCC[P+](CCCC)(CCCC)CCCC.[Cl-] [[4]Cl, (3-(acryloyloxy)propyl)tributylphosphonium chloride]
% Bacteria killed (Bacteria; 15% [4]Cl film): 18% | % Bacteria killed (Bacteria; 20% [4]Cl film): 18% | % Bacteria killed (Bacteria; 25% [4]Cl film): 71% | % Bacteria killed (Bacteria; 30% [4]Cl film): 71% | % Bacteria killed (Bacteria; 37.5% [4]Cl film): 75% | % Bacteria killed (Bacteria; 47.5% [4]Cl film): 100% | Charge/Unit area ([4]; 15% [4]Cl film): 0 ×10^x Y^+/cm^2 | Charge/Unit area ([4]; 20% [4]Cl film): 5.6 × 10^14 ×10^x Y^+/cm^2 | Charge/Unit area ([4]; 25% [4]Cl film): 3.46 × 10^15 ×10^x Y^+/cm^2 | Charge/Unit area ([4]; 30% [4]Cl film): 9.07 × 10^15 ×10^x Y^+/cm^2 | Charge/Unit area ([4]; 37.5% [4]Cl film): 1.24 × 10^16 ×10^x Y^+/cm^2 | Charge/Unit area ([4]; 47.5% [4]Cl film): 2.54 × 10^16 ×10^x Y^+/cm^2
